Assay results published in ChEMBL document CHEMBL1201862, “PubChem BioAssay data set” (2004).
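Briefly, cells in 96-well plates were exposed to five compound concentrations for 48 h, and endpoints were estimated by linear interpolation. GI50 marks 50% less growth.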 The source made the active and inactive calls. Cut-off read from the data, not from the text of the source: active = GI50 up to about 1.1 µM and inactive = higher.

How the values were obtained:
Assay in all cases: NCI tumour cell line growth inhibition, 48 h
EKVX = test system: EKVX
HL-60 = test system: HL-60
Hs-578T = test system: Hs-578T
IGROV-1 = test system: IGROV-1
K562 = test system: K562
MDA-MB-435 = test system: MDA-MB-435
MOLT-4 = test system: MOLT-4
NCI-H522 = test system: NCI-H522
OVCAR-5 = test system: OVCAR-5
OVCAR-8 = test system: OVCAR-8
RXF 393 = test system: RXF 393
SK-MEL-28 = test system: SK-MEL-28
SK-MEL-2 = test system: SK-MEL-2
SK-MEL-5 = test system: SK-MEL-5
SNB-19 = test system: SNB-19
SNB-75 = test system: SNB-75
TK-10 = test system: TK-10
U-251 = test system: U-251
UACC-257 = test system: UACC-257
UO-31 = test system: UO-31

Compound | GI50 (EKVX) | GI50 (HL-60) | GI50 (Hs-578T) | GI50 (IGROV-1) | GI50 (K562) | GI50 (MDA-MB-435) | GI50 (MOLT-4) | GI50 (NCI-H522) | GI50 (OVCAR-5) | GI50 (OVCAR-8) | GI50 (RXF 393) | GI50 (SK-MEL-28) | GI50 (SK-MEL-2) | GI50 (SK-MEL-5) | GI50 (SNB-19) | GI50 (SNB-75) | GI50 (TK-10) | GI50 (U-251) | GI50 (UACC-257) | GI50 (UO-31)
C(=N\N=C1NCCCCN1)/c1ccc2ccccc2c1 | 46.7 µM (inactive) | 23.3 µM (inactive) | 92.9 µM (inactive) | 40.9 µM (inactive) | 20.9 µM (inactive) | 17.2 µM (inactive) | 23.5 µM (inactive) | 26.7 µM (inactive) | 25.2 µM (inactive) | 43.7 µM (inactive) | 22.8 µM (inactive) | 21.3 µM (inactive) | 21.9 µM (inactive) | 17.4 µM (inactive) | 61.5 µM (inactive) | 13 µM (inactive) | 37.9 µM (inactive) | 21.3 µM (inactive) | 21.9 µM (inactive) | 36.8 µM (inactive)
O=c1ccn([C@@H]2C[C@H]2CO)c(=O)[nH]1 | > 100 µM (inactive) | > 100 µM (inactive) | > 100 µM (inactive) | > 100 µM (inactive) | > 100 µM (inactive) | > 100 µM (inactive) | > 100 µM (inactive) | > 100 µM (inactive) | > 100 µM (inactive) | > 100 µM (inactive) | > 100 µM (inactive) | > 100 µM (inactive) | > 100 µM (inactive) | > 100 µM (inactive) | > 100 µM (inactive) | > 100 µM (inactive) | > 100 µM (inactive) | > 100 µM (inactive) | > 100 µM (inactive) | > 100 µM (inactive)
Cc1n(-c2ccccc2)c2c([n+]1Cc1ccc([N+](=O)[O-])cc1)C(=O)c1ccccc1C2=O | 2.49 µM (inactive) | 0.409 µM (active) | 1.78 µM (inactive) | 0.855 µM (active) | 1.16 µM (inactive) | 1.74 µM (inactive) | 0.59 µM (active) | 0.579 µM (active) | 2.02 µM (inactive) | 2.37 µM (inactive) | 7.66 µM (inactive) | 1.81 µM (inactive) | 1.48 µM (inactive) | 1.85 µM (inactive) | 1.72 µM (inactive) | 3.69 µM (inactive) | 7.66 µM (inactive) | 1.75 µM (inactive) | 1.69 µM (inactive) | 13.1 µM (inactive)
